The values that follow are results of earlier work, collected in patent US6468944B1, “Method of preparing glyphosate herbicide formulations” (priority 1991, dated 2002).

As to `O=C(O)CNCP(=O)(O)O` [Glyphosate, N-phosphonomethylglycine], the solubility in water entry is on record as “relatively insoluble in water”.
